Test [1] concerns lineage marker gene expression in hEBs. Briefly: Gene expression profile of day 15 hEBs (RT-PCR, densitometry) and ID50. Particulars: for lineage markers down-regulated / affected: summary statement, hEBs. The test is classed as cell-based, human. As to the method: On the 15th day, differentiated cells that are adherent are washed with 2 ml DPBS and trypsinized (0.05%) from 24 well plates and collected in a tube. The tube is centrifuged at 2000 rpm for 10 minutes to pellet the cells. The total RNA is isolated using TRIzol (Invitrogen Corporation) following the manufacturer's instructions. The RNA is quantified by absorbance at 260 nm, and 1-2 μg of RNA from control and drug treated cells are converted to cDNA using Superscript cDNA synthesis kit (Invitrogen Corporation) following the manufacturer's instructions. cDNA was used to study the expression of genes specific for ectoderm, mesoderm, and endoderm, by an appropriate method, such as RT-PCR, qPCR, or microarray. Markers indicative of each lineage are used.
The changes in gene expression in the presence or absence of the drug are compared. Changes in a mesodermal marker representative of cardiogenesis is used to calculate ID50 values of the tested compounds, and densitometry of the band intensities from RT-PCR, or CT values from qPCR, are used to calculate the ID50 values.
Various compounds were tested for their effect on the gene expression profiles of homeobox transcription factor Nanog (“NANOG”; GenBank Accession Number AB093576), neurofilament, heavy polypeptide 200 KDa (“NEFH” or “NFH”; GenBank Accession Number X15307), keratin-15 (“KRT15”; GenBank Accession Number X07696), actin, alpha, cardiac muscle (“ACTC1”; GenBank Accession Number NM_005159), msh homeobox 1 (“MSX1”; GenBank Accession Number BC067353), CD34 molecule (“CD34”; GenBank Accession Number BC039146), alpha fetoprotein (“AFP”; GenBank Accession Number J00077), serum albumin (“ALB”; GenBank Accession Number M12523), bone morphogenetic protein 4 (“BMP4”; GenBank Accession Number NM_130850), and bone morphogenetic protein 5 (“BMP5”; GenBank Accession Number M60314) in hEBs. Glyceraldehyde-3-phosphate dehydrogenase (“GAPDH”; GenBank Accession Number J04038) was used as a control.
RNA was extracted from different drug treated groups using the trizol method. One microgram of RNA was converted to cDNA using superscript reverse transcriptase. PCR was performed with the initial denaturation cycle at 94° C. for 5 min, followed by 35 cycles of 94° C. for 30 seconds, annealing temperature varying (Table 1) for 30 seconds, 72° C. for 1 minute, followed final extension at 72° C. for 5 min. Electrophoresis was performed on 1.5% agarose gels. Paired comparisons were conducted using a paired t test, and all data are presented as mean values±S.E. Differences were considered significant at a 0.05 level of confidence.
For calculating IC50-hES and ID50-hES cells, one petri dish was used per concentration of the test chemical, as well as for the untreated control (assay medium) and the solvent control. The lid was turned carefully to its regular position and put on top of a petri dish filled with 5 ml PBS. […] The changes in gene expression in the presence or absence of the drug were compared. Changes in mesodermal marker representative of cardiogenesis was used to calculate ID50 values of the tested compounds, and the densitometry of the band intensities performed in case of RT-PCR, or CT values in case of qPCR, were used to calculate the ID50 values.

The next test has as its system hES, hEBs and HFF. Briefly: CyQUANT/survival cytotoxicity, cell type not given. The test is classed as cell-based, human. Particulars: cell type not stated; for cell survival: CyQUANT. Here is the method:
Cytotoxicity analysis of three cell types (hES, hEBs and HFF) was evaluated using the CyQUANT assay following compound treatment. All data were the mean of three independent experiments for each cell type. Data is represented as the mean±SE.

Test [2] relates to 3T3 (mouse fibroblast cell line). Particulars: Table 4; from the EST (Genschow, et al., 2000); cited from earlier work.
Where [3] appears, read: 0.1 μg/ml, day 15 hEBs, FIG. 5B.

For `O=c1[nH]cc(F)c(=O)[nH]1` [5-Fluorouracil, 5-fluorouracil], the “down-regulation of ALB gene expression” value in test [1] (0.001 μg/ml, day 15 hEBs, FIG. 5B) was 40%. Moreover, the “decrease in NFH levels” value in test [1] (0.01 μg/ml, day 15 hEBs, FIG. 5B) worked out at 60%. Further, in test [1] (setting [3]), the “down-regulation of AFP gene expression” value is 80%, the “down-regulation of MSX1 expression” value is 15% and the “down-regulation of NANOG expression” value was 25%. Besides, the “gene expression levels of ACTC1, KRT, CD34, BMP4, and BMP5” value in test [1] (0.0001-0.1 μg/ml, day 15 hEBs, FIG. 5B) is recorded as “no change”. In test [1], the “lineage markers down-regulated / affected” value was “all the three lineage markers are effected”.

With `Cn1c(=O)c2c(ncn2C)n(C)c1=O` [Caffeine, caffeine], in the test with hES, hEBs and HFF (50 μg/ml, FIG. 3B), the “cell survival percentage compared to controls” value is listed as “significant decrease”. In addition, the cell survival with hES, hEBs and HFF (500 μg/ml, FIG. 4C) was determined as 20%. In addition, in test [1] (50 μg/ml, day 15 hEBs, FIG. 6B), the “decrease of AFP expression” value worked out at 80%, the “decrease of NFH expression” value worked out at 80% and the “decrease of keratin expression” value was 85%. Further, the “decrease of ACTC1 expression” value in test [1] (500 μg/ml, day 15 hEBs, FIG. 6B) was 40%. Also, the “expression levels of NANOG, CD34, BMP4, MSX1, and BMP5” value in test [1] (day 15 hEBs, FIG. 6B) is “no significant change”.

Turning to `COc1ccc2c(c1)c(CC(=O)O)c(C)n2C(=O)c1ccc(Cl)cc1` [Indomethacin, indomethacin], in the test on hES, hEBs and HFF (100 μg/ml, FIG. 4D), the cell survival is 20-30%. The “Mouse EST IC50 - 3T3” value in test [2] is 27 µg/mL.

With `CC1(C)S[C@@H]2[C@H](NC(=O)Cc3ccccc3)C(=O)N2[C@H]1C(=O)O` [Penicillin G, penicillin G], the ALB levels result in test [1] (10 μg/ml, day 15 hEBs, FIG. 7) is “decreased”. Besides, the “AFP levels decreased to” value in test [1] (100 μg/ml, day 15 hEBs, FIG. 7) is 40%. Also, the “markers of ectoderm, mesoderm, and endoderm other than AFP and ALB” value in test [1] (day 15 hEBs, FIG. 7A) is “no significant change”. For the same compound, the “expression of AFP and ALB” value in test [1] (highest dose (5000 μg/ml), day 15 hEBs, FIG. 7B) is on record as “complete loss of expression”. Moreover, the “lineage markers down-regulated / affected” value in test [1] is “only endodermal markers are down-regulated”. In test [2], the “Mouse EST IC50 - 3T3” value is 1586 µg/mL.

As for `NC(=O)NO` [Hydroxyurea, hydroxyurea], the “Mouse EST IC50 - 3T3” value in test [2] is 7.2 µg/mL.

For the compound `CS(=O)(=O)OCCCCOS(C)(=O)=O` [Busulfan, busulfan], in test [2], the “Mouse EST IC50 - 3T3” value was 4.8 µg/mL.

The values above are taken from patent publication US20090220996A1, “In vitro Assay Methods for Classifying Embryotoxicity of Compounds” (RELIANCE LIFE SCIENCES PVT LTD., priority 2007, published 2009).
